Assay results from PubChem BioAssay AID1645868 (Buhrlage Lab, Dana-Farber Cancer Institute and Novartis …, 2021).
The source made the active and inactive calls.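 The calls were made as follows: active = maximal percent inhibition of the deubiquitinase OTUD3 of at least 30% across the tested doses; inactive = the rest.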 Positions of bridges follow the written chain, without caps; N, C: chain ends. Residues, ends and D or L forms follow the SMILES beside them. ξ: configuration not given here. *: point of attachment. Pentadecanoyl(3ξ-OH,15-Gua) = N=C(N)NCCCCCCCCCCCCC(O)CC(=O)*

Each compound was assayed against OTU domain-containing protein 3 (Homo sapiens) (UniProt Q5T2D3) (assay: Validation of screening hits, potency titration, in vitro enzymatic, OTU domain-containing protein 3 DUB inhibitors (AID 1645868)). Settings: purified OTUD3, ubiquitin-rhodamine cleavage fluorescence, 2 h.
Sequence of OTU domain-containing protein 3 (Homo sapiens) (Q5T2D3 whole entry, looked up, the tested form may be a part): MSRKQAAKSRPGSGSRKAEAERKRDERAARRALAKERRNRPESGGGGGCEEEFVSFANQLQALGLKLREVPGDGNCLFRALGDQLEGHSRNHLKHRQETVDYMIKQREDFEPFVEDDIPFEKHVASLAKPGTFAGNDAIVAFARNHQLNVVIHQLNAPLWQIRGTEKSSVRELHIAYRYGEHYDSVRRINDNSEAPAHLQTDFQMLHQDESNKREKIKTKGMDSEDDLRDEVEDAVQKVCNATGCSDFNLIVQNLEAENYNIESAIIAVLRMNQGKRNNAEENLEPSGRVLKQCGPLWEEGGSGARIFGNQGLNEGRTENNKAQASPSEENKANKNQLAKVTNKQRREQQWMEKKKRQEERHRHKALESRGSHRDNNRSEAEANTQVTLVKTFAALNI
With O=C(NC1CCN(Cc2ccccc2)CC1)c1[nH]nc2c1COc1ccccc1-2 the IC50 was > 50 µM (inactive).
For CCCNC(=O)c1ccn(-c2ccc3ccc(-c4cnn(C)c4)cn23)n1, the IC50 was > 50 µM (inactive).
For COc1ccccc1-n1nnc(C(=O)Nc2ccc(Oc3ccccc3)cc2)c1C, the IC50 was > 50 µM (inactive).
O=C(O)Cc1ccc(Nc2nc3ccccc3n3nnnc23)cc1 was tested, and the IC50 was > 50 µM (inactive).
With COc1ccc(CCC(=O)Nc2ccc3c(c2)Sc2ncccc2C(=O)N3C)cc1 the IC50 was > 50 µM (inactive).
In the case of O=C1CC(c2ccco2)Cc2[nH]c(=O)c(-c3nc(-c4ccc(Cl)cc4)cs3)cc21 (stereo unspecified), the IC50 is reported as > 50 µM (inactive).
With CCOC(=O)C1C(c2ccc(Br)cc2)C2(C(=O)c3ccccc3C2=O)C2C=Cc3ccccc3N12 (stereo unspecified) the IC50 was > 50 µM (inactive).
COc1ccc(-c2cc(C(=O)NC3CCCCCC3)[nH]n2)cc1S(=O)(=O)N(C)C was tested, and the IC50 was > 50 µM (inactive).
O=C(NCC1CC1)C1CCCN(c2ccc(-c3ccccc3)nn2)C1 (stereo unspecified) was tested, and the IC50 was > 50 µM (inactive).
With COc1ccc(OC)c(NC(=O)C2Oc3ccccc3NC2=O)c1 (stereo unspecified) the IC50 was > 50 µM (inactive).
With O=C(NCc1ccccc1)Nc1cccc2ccccc12 the IC50 was 40.3 µM.
In the case of COc1ccc(CCNC(=O)c2c(N)n(-c3cccc(Cl)c3)c3nc4ccccc4nc23)cc1, the IC50 is reported as > 50 µM (inactive).
Cc1cccc(NC(=O)c2ccn(COc3ccc(F)cc3F)n2)c1C was tested, and the IC50 was > 50 µM (inactive).
Cc1cc(Cl)ccc1Nc1nc(Nc2cccc(F)c2)nc2nccnc12 was tested, and the IC50 was > 50 µM (inactive).
With COc1cccc(-n2cnc3cc(C(=O)NC4CC4)ccc3c2=O)c1 the IC50 was > 50 µM (inactive).
For CCC(C)NC(=O)Cn1c(=O)n(-c2ccccc2)c(=O)c2ccc(C(=O)NCc3ccco3)cc21 (stereo unspecified), the IC50 was 35.4 µM.
Work on O=C(Cc1nnc2c(-c3nc(C4CC4)no3)cccn12)Nc1ccccc1 yielded an IC50 of 22.8 µM.
For COc1ccccc1C(=O)NCC(c1ccc2c(c1)CCCN2C)N1CCCC1 (stereo unspecified), the IC50 was > 50 µM (inactive).
O=C(CCSc1ccc(Cl)cc1)c1cccs1 was tested, and the IC50 was 21.5 µM.
With Fc1ccc(CN2CCc3nc4cccnc4cc3C2)cc1 the IC50 was > 50 µM (inactive).
CC(Nc1ncnc2c1sc1nc(N3CCOCC3)c3c(c12)CCC3)c1ccccc1 (stereo unspecified) was tested, and the IC50 was > 50 µM (inactive).
For Cc1nc(Nc2ncc(C)s2)cc(C2CN(C(=O)Cc3ccccc3)CCO2)n1 (stereo unspecified), the IC50 was > 50 µM (inactive).
Cc1ccc(Cn2cc(-c3noc(-c4ccc[nH]4)n3)nn2)cc1 gave an IC50 of 19.8 µM.
With COc1ccccc1NC(=O)Cn1cc(C(=O)c2ccc(C)cc2)c(=O)c2cc(Cl)ccc21 the IC50 was 23.9 µM.
In the case of O=C(Nc1ccc(SCc2nnc(-c3ccccc3)o2)cc1)C1CC1, the IC50 is reported as > 50 µM (inactive).
For O=C(COc1nsnc1N1CCOCC1)Nc1ccccc1F, the IC50 was > 50 µM (inactive).
For O=C(COc1cccc(-n2cnnn2)c1)Nc1ccc2c(c1)OCCO2, the IC50 was > 50 µM (inactive).
With COc1ccc(NC2c3ccccc3C(=O)N2c2ccccn2)cc1 (stereo unspecified) the IC50 was > 50 µM (inactive).
For Cc1cc(C)c2cc(CN(CCc3ccccc3)C(=O)Nc3ccccc3)c(=O)[nH]c2c1, the IC50 was > 50 µM (inactive).
With CCc1cccc2c(C(=O)COc3ccc(C#N)cc3)c[nH]c12 the IC50 was 47.3 µM.
CCn1cc(-c2nc(-c3ccccc3)no2)c(=O)c2cc(F)ccc21 gave an IC50 of 18 µM.
COc1ccc(Cl)c(NC(=O)C2CC(=O)Nc3cc(-c4ccccc4)nn32)c1 (stereo unspecified) showed an IC50 of 24.9 µM.
In the case of O=C(COc1ncnc2ccccc12)Nc1ccc2c(c1)OC1(CCCC1)O2, the IC50 is reported as 46.2 µM.
COc1ccc(-c2nc(Cn3nnc(C(=O)Nc4ccc(C)c(C)c4)c3N)c(C)o2)cc1 gave an IC50 of 3.46 µM.
With O=C(NCc1ccc(-c2nc3cnccc3o2)cc1)c1ccccc1Br the IC50 was > 50 µM (inactive).
With Fc1cccc(-n2cc(-c3noc(-c4ccc[nH]4)n3)nn2)c1 the IC50 was > 50 µM (inactive).
With COc1cccc2c1NC(=O)C21CCN(C(=O)Nc2cccc(C)c2)CC1 the IC50 was 13.8 µM.
For O=C(O)COc1ccccc1/C=C1\CCc2c1nc1ccccc1c2C(=O)O, the IC50 was > 50 µM (inactive).
CC(C)c1ccc(C(C(=O)NC2CCCCC2)N(C(=O)c2cnccn2)c2cccc(F)c2)cc1 (stereo unspecified) showed an IC50 of 47.6 µM.
In the case of COc1ccccc1C(=O)N1CCc2[nH]c3ccc(F)cc3c2C1, the IC50 is reported as > 50 µM (inactive).
Compound CCc1nc(SCC(=O)Nc2ccccc2Cl)c2oc3ccccc3c2n1 has an IC50 of 1.92 µM.
For CCS(=O)(=O)N1CCc2cc(C(=O)Nc3ccc4c(c3)OCCO4)ccc21, the IC50 was > 50 µM (inactive).
CCNc1nc(SCC(C)=O)nc2sc3c(c12)CCC(C)C3 (stereo unspecified) was tested, and the IC50 was > 50 µM (inactive).
For CC1CCc2c(sc3ncnc(OCc4cccc([N+](=O)[O-])c4)c23)C1 (stereo unspecified), the IC50 was > 50 µM (inactive).
Cc1c(-c2nnc(-c3ccccc3Cl)o2)nnn1-c1ccccc1 was tested, and the IC50 was > 50 µM (inactive).
In the case of Cc1ccc(C2=Nc3ccccc3N(CC(=O)Nc3cccc(C)c3C)C(=O)C2)cc1C, the IC50 is reported as > 50 µM (inactive).
For O=C(CSc1ncnc2c1oc1ccccc12)Nc1ccc2c(c1)OCCO2, the IC50 was 34.5 µM.
For CC(C)c1nc2sc3c(N(CCO)CCO)ncnc3c2c2c1COC(C)(C)C2, the IC50 was > 50 µM (inactive).
With O=C(NCc1cccnc1)c1cnn2c(C(F)(F)F)cc(-c3ccc(F)cc3)nc12 the IC50 was > 50 µM (inactive).
COC1=C(C2=C(OC)C(=O)c3cc4c(c(O)c3C2=O)C(=O)OC(C)C4)C(=O)c2c(cc3c(c2O)C(=O)OC(C)C3)C1=O (stereo unspecified) gave an IC50 of 3.28 µM.
With COc1ccc(CCC(=O)Nc2ncc(C)s2)cc1OC the IC50 was > 50 µM (inactive).
For Cc1ccc(NC2=NC(c3ccco3)n3c(nc(C)cc3=O)N2)c(C)c1 (stereo unspecified), the IC50 was > 50 µM (inactive).
In the case of O=c1[nH]cccc1NS(=O)(=O)c1ccc(F)cc1, the IC50 is reported as > 50 µM (inactive).
For Cn1nccc1C(=O)N1CCCCC1c1ncc(Cc2ccc(Cl)cc2)o1 (stereo unspecified), the IC50 was > 50 µM (inactive).
For COc1ccc(CCNC(=O)[C@H](CCSC)NC(=O)N2CCn3c2nc2ccccc23)cc1OC, the IC50 was > 50 µM (inactive).
In the case of Cc1ccc2[nH]c(=O)c(CN(Cc3cccnc3)C(=O)c3cccc(Cl)c3)cc2c1, the IC50 is reported as > 50 µM (inactive).
Cc1cccc(Cl)c1NC(=O)Nc1ccc(NC(=O)c2ccccc2O)cc1 showed an IC50 of 47.8 µM.
In the case of CC1CCN(C(=O)c2cn(-c3cc(N4CCC(C)CC4)ncn3)cn2)CC1, the IC50 is reported as > 50 µM (inactive).
Cc1ccc(-c2nc(NC(=O)COc3ccc(Cl)cc3)no2)cc1 gave an IC50 of 20.6 µM.
With O=C(CN1C(=O)COc2ccc(Cl)cc21)Nc1cccc2ncccc12 the IC50 was > 50 µM (inactive).
For Cc1nn(Cc2ccccc2)c(C)c1C(=O)NC1CCCc2ccccc21 (stereo unspecified), the IC50 was > 50 µM (inactive).
In the case of O=C(Nc1ccc2nccnc2c1)c1cccc(C(F)(F)F)c1, the IC50 is reported as > 50 µM (inactive).
COc1ccc(NC(=O)Cn2c(CS(=O)(=O)c3ccc(C)cc3)nc3ccccc32)cc1 showed an IC50 of 25.7 µM.
In the case of CCCC(=O)Nc1ccc(SCc2nnc(-c3ccccc3)o2)cc1, the IC50 is reported as > 50 µM (inactive).
O=C(Nc1nc2ccccc2s1)c1ccc2c(c1)C(=O)N(Cc1cccnc1)C2=O showed an IC50 of 38.5 µM.
For N#Cc1cccc(S(=O)(=O)N2CCc3nc4ccccc4n3CC2)c1, the IC50 was 28.3 µM.
CC1NC(=O)C(CC(N)=O)NC(=O)C(C(C)O)NC(=O)C(Cc2ccc(O)cc2)NC(=O)C(C(C)C)NC(=O)C(NC(=O)CC(O)CCCCCCCCCCCCN=C(N)N)C(C)OC1=O (stereo unspecified) ({Pentadecanoyl(3ξ-OH,15-Gua)}-TVYTNA; ester 1-C; configuration not given here) gave an IC50 of 36.6 µM.
Cc1ccc(C2c3cccn3CCN2C(=O)Nc2ccccc2)cc1 (stereo unspecified) was tested, and the IC50 was > 50 µM (inactive).
For O=C(Nc1cccc(S(=O)(=O)N2CCCC2)c1)c1ccc2c(=O)n3c(nc2c1)CCCCC3, the IC50 was > 50 µM (inactive).
In the case of Cc1nn(-c2ccccc2)c(C)c1C(=O)OCC(=O)Nc1cccc(C#N)c1, the IC50 is reported as > 50 µM (inactive).
For COc1ccccc1-c1nc2c3c(C)c(C)n(Cc4cccnc4)c3ncn2n1, the IC50 was > 50 µM (inactive).
In the case of Cc1nc(-c2cccc(NC(=O)c3ccccc3Cl)c2)no1, the IC50 is reported as > 50 µM (inactive).
In the case of Cn1cc(-c2noc(Cc3cccc(C(F)(F)F)c3)n2)ccc1=O, the IC50 is reported as > 50 µM (inactive).
CC1CCN(c2nnc(-c3nc(C4CC4)no3)c3ccccc23)CC1 was tested, and the IC50 was > 50 µM (inactive).
COc1ccc(C)cc1NC(=O)Cc1csc(NC(=O)c2ccc(=O)[nH]c2)n1 was tested, and the IC50 was > 50 µM (inactive).
In the case of O=C(OCc1ccc(F)cc1)c1ccc2ccccc2n1, the IC50 is reported as > 50 µM (inactive).
With COc1ccc(NC(=O)c2sc(N3CCOCC3)nc2-c2ccccc2)c(OC)c1 the IC50 was 43.5 µM.
Nc1nonc1C(=O)NCCNCc1cccc(OCc2ccc(Cl)cc2)c1 was tested, and the IC50 was > 50 µM (inactive).
For COc1ccc(Cn2cnc3c([nH]c4ccc(Br)cc43)c2=O)cc1, the IC50 was > 50 µM (inactive).
In the case of COc1ccc(NC(=O)C2[C@@H]3C(=O)N(C4CCCCC4)C(=O)[C@@H]3[C@H]3c4ccccc4C=CN23)cc1 (stereo partly specified), the IC50 is reported as > 50 µM (inactive).
In the case of COc1ccc(C(=O)Nc2cc3c4c(c2)C(C)C(=O)N4CCC3)cc1 (stereo unspecified), the IC50 is reported as > 50 µM (inactive).
With CC(=O)CN1CC2(CCN(Cc3ccc(F)cc3)CC2)COc2ccccc2S1(=O)=O the IC50 was > 50 µM (inactive).
For Cc1ccc(C(=O)Nc2ccc3nccnc3c2)cc1, the IC50 was > 50 µM (inactive).
Cc1noc(-c2cc(=O)n(CC(=O)NCc3ccccc3F)c3ccccc23)n1 gave an IC50 of 25 µM.
With FC(F)(F)c1cccc(CSc2ccc3nnc(-c4ccccn4)n3n2)c1 the IC50 was > 50 µM (inactive).
Compound c1ccc(-n2nnc(-c3noc(-c4cccnc4)n3)c2-c2ccncc2)cc1 has an IC50 of 24 µM.
For O=C(/C=C/c1ccc2c(c1)OCO2)Nc1nc2c(s1)COCC2, the IC50 was > 50 µM (inactive).
Cc1cccc(NC(=O)Cn2c(-c3cnccn3)nc(C)c(C)c2=O)c1C was tested, and the IC50 was > 50 µM (inactive).
NS(=O)(=O)c1cccc(NC(=O)CN2CCCc3ccccc32)c1 was tested, and the IC50 was > 50 µM (inactive).
O=C(Nc1nc2c(s1)COCC2)c1cc(-c2ccco2)[nH]n1 was tested, and the IC50 was > 50 µM (inactive).
CCN(CC)c1nc(F)c2c(c1F)S(=O)(=O)CCN2Cc1ccccc1 was tested, and the IC50 was > 50 µM (inactive).
For O=C(Nc1cccc2ccccc12)N1CCC(c2nc3c(nnn3Cc3ccc(F)cc3)c(=O)[nH]2)CC1, the IC50 was > 50 µM (inactive).
For CC1(C)CC2CC(C)(CN2Cc2c(O)ccc3ccccc23)C1 (stereo unspecified), the IC50 was > 50 µM (inactive).
Work on CC1=C(C)C(c2c(-c3ccc(C)cc3)[nH]c3ccccc23)N(C(C)(C)C)C1=O (stereo unspecified) yielded an IC50 of 8.84 µM.
Cc1cc(-c2nnc(SCC(=O)Nc3ccc(Br)c(C)c3)n2N)n[nH]1 showed an IC50 of 17.3 µM.
In the case of Cc1cccc(N2CCN(C(=O)c3nnn(-c4ccc(F)cc4)n3)CC2)c1, the IC50 is reported as > 50 µM (inactive).
